For series [1] the following is noted: clinical trials; cited from earlier work.
Series [2] in a line: In vivo pharmacokinetic study of HL (plasma, HPLC). The arrangement: species or system CD®(SD) IGS rats. As to the method:
For pharmacokinetic studies, CD®(SD) IGS rats (5−6 weeks old) were randomly divided into two groups (three for each group) for oral administration (per os, PO) or intravenous administration (i.v.) of HL with dosages of 30 mg kg^−1 and 0.5 mg kg^−1, respectively (Tables S3 and S4). The blood was then collected from the orbital sinus with a heparinized syringe at different time intervals (0.5, 1.0, 2.0, 4.0, 8.0, and 24 h for PO, and 0.03, 0.5, 1.0, 2.0, 4.0, 8.0, and 24 h for i.v.).
CD®(SD) IGS rats (5–6 weeks old) were purchased from Beijing Vital River Laboratory Animal Technology Co., Ltd. (Beijing, China). All animal experiments were conducted in accordance with the requirements of the Experimental Animal Welfare Ethics Committee of Transcenta Diagnostic Technology (Suzhou) Co., Ltd. (PZ-20211210001). For pharmacokinetic experiments, SD rats were randomly divided into two groups, with 3 for PO administration (30 mg kg^−1) and i.v. administration (0.5 mg kg^−1), respectively. Plasma was collected from the jugular vein with the presence of a heparinized syringe at different time intervals, viz. 0.5, 1.0, 2.0, 4.0, 8.0, and 24 h for PO and 0.03, 0.5, 1.0, 2.0, 4.0, 8.0, and 24 h for i.v. Plasma was first centrifuged at 3500 rpm for 10 min, and then 0.05 mL of the plasma was extracted; trifluoroacetic acid was used to acid precipitate protein, and NaOH was used to neutralize the solution. The mixture was diluted using MeCN: H2O (5:5 v/v). After 10 min of precipitating, supernatant fluids were collected by centrifugation at 10,000 rpm for 5 min and filtered with a syringe through a 0.22 μm hydrophilic membrane filter and measured using the HPLC method. For the HPLC assay, the analytical column was an Agilent ZORBAX SB C18 column (4.6 mm × 150 mm, 5 μm). The mobile phase was MeCN:H2O (5:5 v/v), the flow rate of the mobile phase was 0.8 mL min^−1, and the UV detector was set at 245 nm.

Series [3] can be described thus: Hydroxyl radical (•OH) production from H2O2, TMB assay. Conditions: 5, 10, 20, 30 μg/mL HL or equivalent HL, 100 μM H2O2, 20 min incubation.
Description: The generation of •OH from H2O2 by HL, 1, and 2 was assayed by 3,3′,5,5′-tetramethylbenzidine (TMB) [12, 28, 29]. The colorless TMB can be quickly oxidized by •OH to give a characteristic blue charge-transfer complex oxTMB with intense absorption at 652 nm [30, 31]. Different concentrations of HL (5, 10, 20, 30 μg/mL) or 1 and 2 containing equivalent HL were treated with (TMB) solution containing 100 μM H2O2, which is assumed as approximately the concentration reported to be present in tumor cells, or five times that in normal cells [32, 33].
Series [4] has as its system Hep-G2 cells. The experiment in a line: CCK-8 cytotoxicity assay, Hep-G2. In kind it is cell-based. Conditions: Homo sapiens, HepG2; Hep-G2, CCK-8, 72 h incubation, n = 3. As to the method:
(§1) The cytotoxicity of HL, 1, and 2 against three hepatocellular carcinoma cell lines Hep-G2, PLC/PRF/5, and HuH-7 were evaluated by the cell counting kit-8 (CCK-8; APExBIO Technology, Houston, TX, USA) assay.
(§2) The HuH-7 cell line was cultured in DMEM + 10% FBS + 1% P/S and DMEM + 1% P/S. Cells grew as a monolayer and were detached upon confluence using trypsin (0.5% w/v in PBS). The cells were harvested from the cell culture medium by incubation in trypsin solution for 3 min, and they were then centrifuged with the supernatant and subsequently discarded. A 3 mL portion of serum-supplemented cell culture medium was added to neutralize any residual trypsin. The cells were re-suspended in serum-supplemented DMEM at a concentration of 5 × 10^4 cells/mL. […] After incubation, 100 μL of culture medium (DMEM + 10% FBS + 1% P/S) and 10 μL of CCK-8 was introduced and cultured for an additional 2 h before spectrophotometric measurement at 450 nm on a microplate reader. The relative cell viability (%) related to control cells was calculated using the equation: V%=[A]experimental−[A]blank/[A]control−[A]blank×100% where V% is the percentage of cell viability, [A]experimental is the absorbance of the wells culturing the treated cells, [A]blank is the absorbance of the blank, and [A]control is the absorbance of the wells culturing untreated cells. […]
(In general: Tetrazolium dyes change colour on reduction, which living cells bring about.)

For series [5], the system named is PLC/PRF/5 cells. The experiment in a line: CCK-8 cytotoxicity assay, PLC/PRF/5. In kind it is cell-based. As to conditions: Homo sapiens; PLC/PRF/5, CCK-8, 72 h incubation, n = 3. How it is done: as §1, §2
The test system of series [6] is CD®(SD) IGS rats. The experiment in a line: Toxicological study of HL, daily PO administration. In kind it is in vivo. As to the method: Their weight and status were monitored and compared with the control group (groups 1 and 2) that was fed sterilizing solutions. […] This highlights that a 5 mg kg^−1 drug dosage of HL by PO administration is safe for in vivo studies.
The weight of the rats was continuously monitored over 27 days, and they were fed on day 1, 4, 8, 13, 16, 19, and 23.

Series [7] relates to HuH-7 cells. The experiment in a line: CCK-8 cytotoxicity assay, HuH-7. In kind it is cell-based. Conditions: Homo sapiens; HuH-7, CCK-8, 72 h incubation, n = 3. As to the method: as §1, §2
In series [8] the test system is HuH-7 cells. The experiment in a line: Intracellular ROS generation, DCFH-DA probe. The format is cell-based. As to conditions: HuH-7, equivalent HL concentration 2 μg/mL, 2 h. The text has this:
Given the efficient •OH production in water induced by 1 and 2, we next investigated in vitro ROS generation by 1 and 2 in the representative HuH-7 cell line using 2′,7′-dichlorodihydrofluorescein diacetate (DCFH-DA) as a fluorescence probe and compared it with that of HL [34, 35]. The non-emissive DCFH-DA can be readily uptaken by the cell, where it is hydrolyzed into 2,7-dichlorodihydrofluorescein (DCFH) by cellular enzymes. Upon oxidation by ROS, DCFH can convert to 2,7-dichlorofluorescein (DCF), which gives bright green fluorescence.
HuH-7 cells were introduced into a 12-well plate (4 × 10^5 per well) in 1 mL of growing media (DMEM + 10% FBS + 1% P/S), and the cells were incubated at 37 °C under 5% CO2 for 24 h for attachment. The growing media were removed, and the wells were replenished with HL, 1, and 2 in 1 mL of growing media (with 2 ppm of DMSO) with equivalent HL concentrations of 2 μg/mL. The cells were incubated for an additional 2 h, and then the culturing media was replaced with […] DCFH-DA in DMEM + 1% P/S (1 mL), prepared by diluting (1:1000) a concentrated DCFH-DA following the supplied protocols. The cells were incubated for a further 20 min, and then the culturing media was removed. […]

Series [9] can be described thus: Stability of MeOH solutions by UV-Vis. Conditions: HL/L concentration 30 μg/mL, kept for 72 h.
[10] abbreviates: CD(SD) IGS (SD), rat, plasma, iv, 0.5 mg kg−1, mean, n = 3.
Setting [11] is: CD(SD) IGS (SD), rat, plasma, iv, 0.5 mg/kg, 0.5 mg kg−1, mean, n = 3.
[12] abbreviates: CD(SD) IGS (SD), rat, plasma, po, 30 mg/kg, 30 mg kg−1, mean, n = 3.
Where [13] appears, read: CD(SD) IGS (SD), rat, plasma, PO, 30 mg kg−1, mean, n = 3.

On to `S=C(N/N=C1\CCCc2cccnc21)N1CCN(c2ccccn2)CC1` [COTI-2, 4-(pyridine-2-yl)-N-([(8E)-5,6,7,8-tetrahydroquinolin-8-ylidene]amino)piperazine-1-carbothioamide], for which the side effects entry in series [1] is “drug resistance and other adverse effects (i.e., nausea, vomiting, and fatigue)”.
`NC(=S)NN=Cc1ccc(O)cn1` [Compound 5-HP, 5-hydroxypicolinaldehyde thiosemicarbazone]: the side effects entry in series [1] was “severe hematological and gastrointestinal side effects”.
In general, AUC(0-inf) refers to total exposure, with the tail of the curve extrapolated. By AUC(0-t) is commonly meant the area under the concentration-time curve up to a stated or last time point. Read a low AUC(0-t) as low exposure. The MRT last is a mean duration of stay, worked out from the concentration-time curve. A word on the half-life: it is the time in which the quantity being followed falls by half. High values mean slow loss, low ones fast loss. As a reminder, the Cmax is the peak of the concentration-time curve. In general, Tmax refers to the time from dosing to the highest level. As a reminder, the IC50 is the concentration that gives 50% inhibition. Turning to `S=C(NN=C(c1ccccn1)c1ccccn1)N1CCN(c2nccs2)CC1` [HL, N′-(di(pyridin-2-yl)methylene)-4-(thiazol-2-yl)piperazine-1-carbothiohydrazide], the area under the curve AUC(0-inf) stood at 5700 ± 2650 ng·h/mL in series [2] (setting [10]) and 10400 ± 5310 ng·h/mL in series [2] (setting [13]). Moreover, the AUC(0-t) was determined as 4210 ng·h/mL in series [2] (setting [10]) and 5340 ng·h/mL in [2] (setting [13]). Moreover, the C0 in series [2] (setting [10]) worked out at 858 ng/mL. Also, the figures for the MRT last in series [2] (setting [10]) and in [2] (setting [13]) were 7.85 h and 9.4 h, respectively. The half-life in series [2] (setting [10]) is 11.9 ± 1.66 h; in [2] (setting [13]), 21.6 ± 9.4 h. The clearance in [2] (CD(SD) IGS (SD), rat, plasma, iv, 0.5 mg kg−1, mean, n = 3, read-out: Cl_obs (converted)) was 1.8 mL/min/kg. For the same compound, the concentration at 0.03 h in series [2] (CD(SD) IGS (SD), rat, plasma, iv, 0.5 mg kg−1, sampling time 0.03 h) stood at 806 ng/mL. In addition, the concentration at 0.5 h in series [2] (CD(SD) IGS (SD), rat, plasma, iv, 0.5 mg kg−1, sampling time 0.50 h) came out at 349 ng/mL; in series [2] (CD(SD) IGS (SD), rat, plasma, PO, 30 mg kg−1, sampling time 0.50 h), 242 ng/mL. For the same compound, the concentration at 1 h in series [2] (CD(SD) IGS (SD), rat, plasma, iv, 0.5 mg kg−1, sampling time 1.00 h) came to 341 ng/mL; in [2] (CD(SD) IGS (SD), rat, plasma, PO, 30 mg kg−1, sampling time 1.00 h), 426 ng/mL. For the same compound, the concentration at 2 h in series [2] (CD(SD) IGS (SD), rat, plasma, iv, 0.5 mg kg−1, sampling time 2.00 h) stood at 372 ng/mL; in series [2] (CD(SD) IGS (SD), rat, plasma, PO, 30 mg kg−1, sampling time 2.00 h), 410 ng/mL. For the same compound, the concentration at 4 h worked out at 240 ng/mL in [2] (CD(SD) IGS (SD), rat, plasma, iv, 0.5 mg kg−1, sampling time 4.00 h) and 316 ng/mL in series [2] (CD(SD) IGS (SD), rat, plasma, PO, 30 mg kg−1, sampling time 4.00 h). The concentration at 8 h is 163 ng/mL in series [2] (CD(SD) IGS (SD), rat, plasma, iv, 0.5 mg kg−1, sampling time 8.00 h) and 218 ng/mL in series [2] (CD(SD) IGS (SD), rat, plasma, PO, 30 mg kg−1, sampling time 8.00 h). For the same compound, the concentration at 24 h in [2] (CD(SD) IGS (SD), rat, plasma, iv, 0.5 mg kg−1, sampling time 24.00 h) was determined as 83.8 ng/mL; in series [2] (CD(SD) IGS (SD), rat, plasma, PO, 30 mg kg−1, sampling time 24.00 h) it was 145 ng/mL. Moreover, the Cmax in series [2] (setting [11]) worked out at 806 ± 46.7 ng/mL; in series [2] (setting [12]), 472 ng/mL. The figures for the Tmax in series [2] (setting [11]) and in series [2] (setting [12]) were 0.03 h and 1.17 h, respectively. In addition, the CL/F in series [2] (CD(SD) IGS (SD), rat, plasma, PO, 30 mg kg−1, mean, n = 3, read-out: Cl_F_obs (converted)) was 55.6 mL/min/kg. Further, the Vz_F_obs in series [2] (PO, 30 mg kg−1, mean, n = 3) is 93.07416 L/kg. In series [2] (i.v., 0.5 mg kg−1, mean, n = 3), this compound registered a Vss_obs of 1.75547 L/kg. Further, in series [2] (i.v., 0.5 mg kg−1, mean, n = 3), the Vz_obs amounted to 1.75231 L/kg. The “generation of •OH from H2O2 (oxTMB, absorption at 652 nm)” value in [3] is given as “no oxTMB found”. Also, the IC50 is 78.8 µM in series [4], 3.26 µM in series [5] and 192 µM in [7]. The “body weight of rats” value in [6] (daily 5 mg kg−1 (12.2 μmol kg−1), groups 3 and 4, similar to control groups 1 and 2) was “constantly growing”. Moreover, the “rats with abnormal behaviors (decreasing food uptake, cachexia, lethargy) on day 9, which died or were euthanized after drug suspension” value in series [6] (daily 10 mg kg−1 (24.4 μmol kg−1), groups 5 and 6) was “four of six”. Moreover, the “intracellular ROS generation (DCF fluorescence)” value in series [8] is reported as “negligible ROS”. In addition, in [9], the “stability of MeOH solution (UV-Vis absorption pattern)” value is given as “remained stable”.
As for `NC(=S)NN=Cc1ncccc1N` [Triapine, 3-aminopyridine-2-carboxaldehyde thiosemicarbazone], the side effects entry in series [1] was “formation of methemoglobin hypoxia”.

The values are drawn from article PMC11357102, “Thiazole Functionalization of Thiosemicarbazone for Cu(II) Complexation: Moving toward Highly Efficient Anticancer Drugs with Promising Oral Bioavailability” (Molecules, 2024).
